≈ marks a conversion by molar mass, not a printed value.

The test system of this experiment is Enterococcus faecium. Nature of the experiment: microbe, parasite or virus in culture. Conditions: NCTC 7171.
Description: Antibacterial activity against Enterococcus faecium NCTC 7171 assessed as bacterial growth inhibition after 16-20 hrs by broth microdilution method
As to `CC1=C(C(N)=O)C(c2cccs2)n2ncnc2N1` (stereo not given), the MIC was over 128 µg/mL. With `CC1=C(C(=O)Nc2ccc(C)cc2C)C(c2ccc(Cl)cc2)n2nc(C(=O)OC(C)C)nc2N1` (stereo not given), the MIC worked out at 16 µg/mL (≈ 33.3 µM).

As for `CC1=C(C(N)=O)C(c2ccc(N(C)C)cc2)n2nc(Sc3ccccn3)nc2N1` (stereo not given), the MIC was over 128 µg/mL.

In the case of `CC1=C(C(=O)Nc2ccc(C)cc2C)C(c2ccc(C)cc2)n2nc(SCc3cccc(C)c3)nc2N1` (stereo not given), the MIC is over 128 µg/mL. The result for `CC1=C(C(N)=O)C(c2ccc(N(C)C)cc2)n2nc(SCCNC(=O)OCc3ccccc3)nc2N1` (stereo not given) reads over 128 µg/mL; that for `CN(C)c1ccc(C2C3=C(CCCC3=O)Nc3nc(SCc4ccccc4)nn32)cc1` (stereo not given), over 128 µg/mL; that for `CCOc1ccccc1C1C2=C(CCCC2=O)Nc2nc(SCc3ccc(C(=O)O)cc3)nn21` (stereo not given), over 128 µg/mL.

Regarding `O=C1CCCC2=C1C(c1ccc(Cl)cc1)n1nc(SCc3cccc4ccccc34)nc1N2` (stereo not given), the MIC was over 128 µg/mL. The result for `CC(=O)Nc1ccc(C2C(C(N)=O)=C(C)Nc3nc(SCc4ccccc4)nn32)cc1` (stereo not given) reads 128 µg/mL (≈ 295 µM); that for `CC1=C(C(N)=O)C(c2ccc(N(C)C)cc2)n2ncnc2N1` (stereo not given), over 128 µg/mL. Regarding `COc1ccc(C2C(C(=O)Nc3ccc(C)cc3C)=C(C)Nc3nc(SCc4cccc(C)c4)nn32)cc1` (stereo not given), the MIC was over 128 µg/mL. The molecule `CC1=C(C(N)=O)C(c2ccc(C(=O)O)cc2)n2nc(SCc3ccccc3)nc2N1` (stereo not given) returned an MIC of over 128 µg/mL. Consider `CCc1ccc(C2C(C(N)=O)=C(C)Nc3nc(SCc4ccccc4)nn32)cc1` (stereo not given), for which the MIC is 8 µg/mL (≈ 19.7 µM).

The molecule `COc1ccc(CSc2nc3n(n2)C(c2ccc(N(C)C)cc2)C(C(N)=O)=C(C)N3)cc1` (stereo not given) showed an MIC of over 128 µg/mL. Under `CCc1ccc(C2C(C(=O)Nc3ccccc3C)=C(C)Nc3nc(SCc4cccc(OC)c4)nn32)cc1` (stereo not given) stands over 128 µg/mL; under `CCN(CC)c1ccc(C2C(C(N)=O)=C(C)Nc3nc(SCc4ccccc4)nn32)cc1` (stereo not given), 8 µg/mL (≈ 17.8 µM). For the molecule `CC1=C(C(N)=O)C(c2cccc(C(F)(F)F)c2)n2nc(SCc3ccccc3)nc2N1` (stereo not given), the MIC came out at 16 µg/mL (≈ 35.9 µM). The result for `COc1ccc(C2C(C(N)=O)=C(C)Nc3nc(SCc4ccccc4)nn32)cc1` (stereo not given) reads over 128 µg/mL; that for `CCc1ccc(C2C(C(=O)Nc3ccccc3)=C(C)Nc3nc(SCc4cccc(OC)c4)nn32)cc1` (stereo not given), over 128 µg/mL; that for `CC1=C(C(=O)Nc2ccc(C)cc2C)C(c2ccc(F)cc2)n2nc(SCc3cccc(C)c3)nc2N1` (stereo not given), over 128 µg/mL. The result for `CC1=C(C(N)=O)C(c2ccc(C(C)C)cc2)n2nc(SCCNC(=O)OCc3ccccc3)nc2N1` (stereo not given) reads over 128 µg/mL; that for `CC1=C(C(N)=O)C(c2c[nH]c3ccccc23)n2nc(SCc3ccccc3)nc2N1` (stereo not given), over 128 µg/mL; that for `CC1=C(C(N)=O)C(c2ccc(O)cc2)n2nc(SCc3ccccc3)nc2N1` (stereo not given), over 128 µg/mL.

The molecule `CSc1ccc(CSc2nc3n(n2)C(c2ccc(N(C)C)cc2)C(C(N)=O)=C(C)N3)cc1` (stereo not given) displayed an MIC of over 128 µg/mL. The result for `COc1ccc(C2C(C(N)=O)=C(C)Nc3nc(SCc4ccccc4)nn32)cc1O` (stereo not given) reads over 128 µg/mL; that for `CC1=C(C(N)=O)C(c2ccc(N3CCCC3)cc2)n2nc(SCc3ccccc3)nc2N1` (stereo not given), 16 µg/mL (≈ 35.8 µM).

Take `COC(=O)c1ccc(CSc2nc3n(n2)C(c2ccc(N(C)C)cc2)C(C(N)=O)=C(C)N3)cc1` (stereo not given): the MIC is over 128 µg/mL. Turning to `CC1=C(C(N)=O)C(c2ccc(N(C)C)cc2)n2nc(SCc3ccc(C)cc3)nc2N1` (stereo not given), the MIC was over 128 µg/mL. Under `CC1=C(C(N)=O)C(c2ccc(Cl)cc2)n2nc(SCc3ccccc3)nc2N1` (stereo not given) stands over 128 µg/mL; under `CC1=C(C(N)=O)C(c2ccc(N(C)C)cc2)n2nc(SCc3ccc(C(F)(F)F)cc3)nc2N1` (stereo not given), over 128 µg/mL; under `CCN(CC)CCOc1ccc(C2C(C(N)=O)=C(C)Nc3nc(SCc4ccccc4)nn32)cc1` (stereo not given), over 128 µg/mL. The result for `CC1=C(C(N)=O)C(c2ccc(N(C)C)cc2)n2nc(SCc3ccc(OC(F)(F)F)cc3)nc2N1` (stereo not given) reads over 128 µg/mL; that for `CSc1nc2n(n1)C(c1ccc(N(C)C)cc1)C(C(N)=O)=C(C)N2` (stereo not given), over 128 µg/mL; that for `CC1=C(C(N)=O)C(c2ccc(N(C)C)cc2)n2nc(SCc3ccc(SC(F)(F)F)cc3)nc2N1` (stereo not given), 8 µg/mL (≈ 15.4 µM). Under `CC1=C(C(=O)Nc2ccc(C)cc2C)C(c2cccs2)n2nc(SCc3cccc(Cl)c3)nc2N1` (stereo not given) stands over 128 µg/mL; under `CC1=C(C(N)=O)C(c2cccs2)n2nc(SCc3ccccc3)nc2N1` (stereo not given), over 128 µg/mL; under `CC1=C(C(N)=O)C(c2ccc(C)cc2)n2nc(SCc3ccccc3)nc2N1` (stereo not given), over 128 µg/mL.

The molecule `CC1=C(C(N)=O)C(c2cccc(OC(F)(F)F)c2)n2nc(SCc3ccccc3)nc2N1` (stereo not given) came in with an MIC of 16 µg/mL (≈ 34.7 µM). The result for `COc1ccc(C2C3=C(CCCC3=O)Nc3nc(SCc4ccc(C(=O)O)cc4)nn32)cc1` (stereo not given) reads over 128 µg/mL; that for `CC1=C(C(N)=O)C(c2ccccc2C(F)(F)F)n2nc(SCc3ccccc3)nc2N1` (stereo not given), over 128 µg/mL; that for `CSc1ccc(C2C(C(N)=O)=C(C)Nc3nc(SCc4ccccc4)nn32)cc1` (stereo not given), over 128 µg/mL.

Take `CC1=C(C(N)=O)C(c2ccc(C#N)cc2)n2nc(SCc3ccccc3)nc2N1` (stereo not given): the MIC was found to be 16 µg/mL (≈ 39.8 µM). The result for `CC1=C(C(N)=O)C(c2ccsc2)n2nc(SCc3ccccc3)nc2N1` (stereo not given) reads over 128 µg/mL. The molecule `CC1=C(C(N)=O)C(c2cccc(OC(C)C)c2)n2nc(SCc3ccccc3)nc2N1` (stereo not given) returned an MIC of over 128 µg/mL. Under `CCOC(=O)C1=C(C)Nc2nc(SCc3ccccc3)nn2C1c1ccc(N(C)C)cc1` (stereo not given) stands over 128 µg/mL; under `CC1=C(C(N)=O)C(c2ccc(C(F)(F)F)cc2)n2nc(SCc3ccccc3)nc2N1` (stereo not given), 8 µg/mL (≈ 18 µM). Under `CC1=C(C(N)=O)C(C2CCCCC2)n2nc(SCc3ccccc3)nc2N1` (stereo not given) stands over 128 µg/mL; under `CCc1cccc(C2C(C(N)=O)=C(C)Nc3nc(SCc4ccccc4)nn32)c1` (stereo not given), 16 µg/mL (≈ 39.5 µM).

Regarding `CC1=C(C(N)=O)C(c2ccc([N+](=O)[O-])cc2)n2nc(SCc3ccccc3)nc2N1` (stereo not given), the MIC turned out to be 64 µg/mL (≈ 151 µM).

`COc1ccc(C2C3=C(CCCC3=O)Nc3nc(SCc4ccc(F)cc4)nn32)cc1OC` (stereo not given): the MIC was over 128 µg/mL.

`CC1=C(C(N)=O)C(c2ccc(SC(F)(F)F)cc2)n2nc(SCc3ccccc3)nc2N1` (stereo not given) had an MIC of over 128 µg/mL.

`CC1=C(C(N)=O)C(c2ccccc2)n2nc(SCc3ccccc3)nc2N1` (stereo not given) had an MIC of over 128 µg/mL. Consider `CCOC(=O)c1nc2n(n1)C(c1ccc(N(C)C)cc1)C(C(N)=O)=C(C)N2` (stereo not given), for which the MIC is over 128 µg/mL. The result for `CC1=C(C(N)=O)C(c2cccc(C(C)C)c2)n2nc(SCc3ccccc3)nc2N1` (stereo not given) reads 16 µg/mL (≈ 38.1 µM). The result for `CC1=C(C(N)=O)C(c2ccc(C(=O)O)cc2)n2nc(SCCNC(=O)OCc3ccccc3)nc2N1` (stereo not given) reads over 128 µg/mL; that for `CC1=C(C(N)=O)C(c2ccc(N(C)C)cc2)n2nc(SCc3ccncc3)nc2N1` (stereo not given), 128 µg/mL (≈ 304 µM).

For `COc1cc(C2C(C(=O)Nc3ccc(C)cc3C)=C(C)Nc3nc(SCc4ccccc4)nn32)ccc1O` (stereo not given), the MIC amounted to 16 µg/mL (≈ 30.3 µM). Under `CC1=C(C(=O)Nc2ccccc2)C(c2ccc(N(C)C)cc2)n2nc(SCc3ccccc3)nc2N1` (stereo not given) stands 8 µg/mL (≈ 16.1 µM).

On to `CC1=C(C(N)=O)C(c2ccc(N(C)C)cc2)n2nc(SCc3ccc(C(=O)O)cc3)nc2N1` (stereo not given), for which the MIC was over 128 µg/mL.

`CC1=C(C(=O)Nc2ccccc2C)C(c2ccc(C)cc2)n2nc(SCc3cccc(C)c3)nc2N1` (stereo not given) registered an MIC of over 128 µg/mL. The molecule `CC1=C(C(N)=O)C(c2ccc[nH]2)n2nc(SCc3ccccc3)nc2N1` (stereo not given) registered an MIC of over 128 µg/mL. The result for `CC1=C(C(N)=O)C(c2ncc[nH]2)n2nc(SCc3ccccc3)nc2N1` (stereo not given) reads 32 µg/mL (≈ 87.1 µM). The result for `CCOC(=O)CSc1nc2n(n1)C(c1ccc(N(C)C)cc1)C(C(N)=O)=C(C)N2` (stereo not given) reads over 128 µg/mL. The molecule `COc1ncccc1C1C(C(N)=O)=C(C)Nc2nc(SCc3ccccc3)nn21` (stereo not given) showed an MIC of 128 µg/mL (≈ 313 µM). The result for `CC1=C(C(N)=O)C(c2ccncc2)n2nc(SCc3ccccc3)nc2N1` (stereo not given) reads over 128 µg/mL; that for `CC1=C(C(N)=O)C(c2ccc(N(C)C)cc2)n2nc(N)nc2N1` (stereo not given), over 128 µg/mL. The molecule `CCc1ccc(C2C(C(=O)Nc3ccccc3OC)=C(C)Nc3nc(SCc4ccccc4)nn32)cc1` (stereo not given) yielded an MIC of over 128 µg/mL. `CC1=C(C(=O)Nc2ccccc2)C(c2ccc(C)cc2)n2nc(SCc3ccccc3C)nc2N1` (stereo not given) displayed an MIC of over 128 µg/mL. Regarding `CC1=C(C(N)=O)C(c2ccco2)n2nc(SCc3ccccc3)nc2N1` (stereo not given), the MIC is over 128 µg/mL. Take `COc1ccc(C2C(C(N)=O)=C(C)Nc3nc(SCc4ccccc4)nn32)cc1OC` (stereo not given): the MIC is over 128 µg/mL. With `CNC(=O)C1=C(C)Nc2nc(SCc3ccccc3)nn2C1c1ccc(N(C)C)cc1` (stereo not given), the MIC was 8 µg/mL (≈ 18.4 µM). The result for `CC1=C(C(N)=O)C(c2ccc(CC(C)C)cc2)n2nc(SCc3ccccc3)nc2N1` (stereo not given) reads 8 µg/mL (≈ 18.5 µM). In turn, `CC1=C(C(N)=O)C(c2cccnc2)n2nc(SCc3ccccc3)nc2N1` (stereo not given) came in with an MIC of over 128 µg/mL. The result for `CC1=C(C(N)=O)C(c2ccc(N(C)C)cc2)n2nc(SCC(N)=O)nc2N1` (stereo not given) reads over 128 µg/mL; that for `COC(=O)c1nc2n(n1)C(c1ccc(N(C)C)cc1)C(C(N)=O)=C(C)N2` (stereo not given), over 128 µg/mL. Under `CC1=C(C(N)=O)C(c2ccc(N)cc2)n2nc(SCc3ccccc3)nc2N1` (stereo not given) stands over 128 µg/mL; under `CC1=C(C(N)=O)C(c2ccc(F)cc2)n2nc(SCc3ccccc3)nc2N1` (stereo not given), 128 µg/mL (≈ 324 µM); under `CC1=C(C(N)=O)C(c2ccc(OC(F)(F)F)cc2)n2nc(SCc3ccccc3)nc2N1` (stereo not given), 8 µg/mL (≈ 17.3 µM). The result for `CCOC(=O)C1=C(C)Nc2nc(SCc3ccc(C(=O)O)cc3)nn2C1c1cccs1` (stereo not given) reads over 128 µg/mL; that for `COc1ccc(C2C(C(=O)Nc3ccccc3C)=C(C)Nc3nc(SCc4cc(C)ccc4C)nn32)cc1` (stereo not given), over 128 µg/mL.

These data come from ChEMBL document CHEMBL3576783, “Synthesis and evaluation of 1,2,4-triazolo[1,5-a]pyrimidines as antibacterial agents against Enterococcus faecium” (J Med Chem, 2015).
